In PMC4821771 (The Journal of steroid biochemistry and molecular biology, 2016):
“Also recorded” adds a separate entry of the source. Each block holds one molecule with its values, some of them ahead of it.

How the values were obtained:
human liver microsomes [1] = assay: Metabolism of 20; format: in vitro ADME; details: for proportion of 20,25(OH)2D3:20,24R(OH)2D3:20,24S(OH)2D3 at the end of the time course: products of 20(OH)D3, human liver microsomes (Fig. S5A)
recombinant human CYP3A4 = recombinant human CYP3A4 (Homo sapiens, UniProt P08684); assay: Metabolism by CYP3A4 supersomes; format: in vitro ADME; details: for proportion of 20,25(OH)2D3:20,24R(OH)2D3:20,24S(OH)2D3: products of 20(OH)D3, CYP3A4 (Fig. S3A); for Km / kcat: initial rates of formation of all products, substrate in 0.45% HP-β-CD, 60 nM CYP3A4, mean ± standard error of the curve fit
recombinant human CYP3A4, sequence (P08684 2-503 limits assumed): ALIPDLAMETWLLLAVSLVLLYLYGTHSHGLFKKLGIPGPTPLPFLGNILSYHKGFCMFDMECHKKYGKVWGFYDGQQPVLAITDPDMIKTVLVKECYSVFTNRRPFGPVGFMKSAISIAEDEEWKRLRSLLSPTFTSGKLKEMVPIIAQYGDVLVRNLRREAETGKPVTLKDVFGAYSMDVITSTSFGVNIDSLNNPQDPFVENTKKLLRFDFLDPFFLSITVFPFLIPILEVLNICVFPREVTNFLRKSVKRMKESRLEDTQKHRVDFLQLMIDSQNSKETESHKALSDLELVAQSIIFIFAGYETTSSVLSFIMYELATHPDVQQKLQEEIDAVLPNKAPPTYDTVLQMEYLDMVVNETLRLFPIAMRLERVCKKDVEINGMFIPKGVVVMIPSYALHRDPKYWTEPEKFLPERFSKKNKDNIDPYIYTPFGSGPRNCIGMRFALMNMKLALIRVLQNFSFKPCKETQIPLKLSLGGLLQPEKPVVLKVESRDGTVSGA

SKMEL-188 melanoma cells = details: cited from earlier work
CYP3A4 = details: cited from earlier work
[2] = high doses, up to 60 μg/kg in rodents; cited from earlier work
human liver microsomes [3] = system: human liver microsomes
human liver microsomes [4] = assay: Incubation of human liver microsomes with CYP3A4 inhibitors; details: for decrease of total products: 50 μM 20(OH)D3, 30 min
[5] = total product formation from 20(OH)D3, microsomes 1.5 mg/mL

Compound: C=C1/C(=C\C=C2/CCC[C@]3(C)[C@@H]([C@H](C)CCCC(C)(C)O)CC[C@@H]23)C[C@@H](O)C[C@@H]1O [1,25(OH)2D3, 1,25-dihydroxyvitamin D3]
efficiency of metabolism by CYP3A4 (CYP3A4): 0.70 min^−1μM^−1

Compound: C=C1CC[C@H](O)C/C1=C/C=C1\CCC[C@@]2(C)[C@H]1CC[C@@H]2[C@@](C)(O)CCCC(C)C [20(OH)D3, 20S-Hydroxyvitamin D3]
hypercalcaemia [2]: does not induce hypercalcaemia
Km (human liver microsomes [1]; [5]): 165 ± 56 µM
Vmax (human liver microsomes [1]; [5]): 292.6 ± 60.3 min⁻¹
more products with substrate in HP-β-CD than when added from acetonitrile (recombinant human CYP3A4; CYP3A4 supersomes, not shown): 25 fold
metabolised faster than 25(OH)D3 (times) (recombinant human CYP3A4; formation of total products, 50 μM substrate (Fig. S3B)): approximately 30 times
Km (recombinant human CYP3A4): 32.6 ± 2.8 µM
kcat (recombinant human CYP3A4): 0.295 ± 0.0083 s⁻¹
substrate consumed by the end of the incubation (recombinant human CYP3A4; time course of 20(OH)D3 metabolism by CYP3A4 (Fig. S3A)): 18%

Compound: C=C1CC[C@H](O)C/C1=C/C=C1\CCC[C@]2(C)[C@@H]([C@H](C)CCCC(C)(C)O)CC[C@@H]12 [25(OH)D3, 25-hydroxyvitamin D3]
catalytic efficiency for metabolism by CYP3A4 (CYP3A4): 1.32 min⁻¹ µM⁻¹

More lines, main results first:

proportion of 20,25(OH)2D3:20,24R(OH)2D3:20,24S(OH)2D3 at the end of the time course (human liver microsomes [1]): 1
further metabolism by CYP3A4 (recombinant human CYP3A4; 25 μM substrate in 0.45% HP-β-CD, 60 nM CYP3A4, one hour): essentially no products formed
proportion of 20,25(OH)2D3:20,24R(OH)2D3:20,24S(OH)2D3 (recombinant human CYP3A4): 1
Compound: C=C1CC[C@H](O)C/C1=C/C=C1\CCC[C@@]2(C)[C@H]1CC[C@@H]2[C@@](C)(O)CCCC(C)(C)O [20,25(OH)2D3, 20,25-dihydroxyvitamin D3]
Vmax (human liver microsomes [1]; formation of the named product from 20(OH)D3, as given in the text): 134.2 ± 36.0 pmol/min/mg protein
inhibition of colony formation compared with 20(OH)D3 (SKMEL-188 melanoma cells): more potent; also recorded: more strongly than the parent 20(OH)D3

proportion of 20,25(OH)2D3:20,24R(OH)2D3:20,24S(OH)2D3 at the end of the time course (human liver microsomes [1]): 0.16
Km (recombinant human CYP3A4): 86.9 ± 44.3 µM
kcat (recombinant human CYP3A4): 0.275 ± 0.0717 s⁻¹
proportion of 20,25(OH)2D3:20,24R(OH)2D3:20,24S(OH)2D3 (recombinant human CYP3A4): 0.14
Compound: C=C1CC[C@H](O)C/C1=C/C=C1\CCC[C@@]2(C)[C@H]1CC[C@@H]2[C@@](C)(O)CC[C@H](O)C(C)C [20,24S(OH)2D3, 20,24S-dihydroxyvitamin D3]

proportion of 20,25(OH)2D3:20,24R(OH)2D3:20,24S(OH)2D3 at the end of the time course (human liver microsomes [1]): 0.47
Km (recombinant human CYP3A4): 332 ± 194 µM
kcat (recombinant human CYP3A4): 1.08 ± 0.475 s⁻¹
proportion of 20,25(OH)2D3:20,24R(OH)2D3:20,24S(OH)2D3 (recombinant human CYP3A4): 0.41
Compound: C=C1CC[C@H](O)C/C1=C/C=C1\CCC[C@@]2(C)[C@H]1CC[C@@H]2[C@@](C)(O)CC[C@@H](O)C(C)C [20,24R(OH)2D3, 20,24R-dihydroxyvitamin D3]
inhibition of colony formation compared with 20(OH)D3 (SKMEL-188 melanoma cells): more potent; also recorded: more strongly than the parent 20(OH)D3

effect on peaks corresponding to 20,25(OH)2D3, 20,24R(OH)2D3/20,26(OH)2D3, 20,24S(OH)2D3 and H6 (human liver microsomes [3]): markedly decreased
Compound: NNC(=O)c1ccncc1 [isoniazid]

decrease of total products (human liver microsomes [4]; 1 μM azamulin): 60.0%
decrease of total products (human liver microsomes [4]; 10 μM azamulin): 75.9%
inhibition of production of 20,24R(OH)2D3, 20,24S(OH)2D3 and 20,25(OH)2D3 (human liver microsomes [4]; human liver microsomes, abstract statement): almost completely inhibited
Compound: CC[C@]1(C)C[C@@H](OC(=O)CSc2nnc(N)[nH]2)[C@]2(C)[C@H](C)CC[C@]3(CCC(=O)[C@H]32)[C@@H](C)[C@@H]1O [azamulin]
